Test results: patent US11407736B2 (priority 2019, dated 2022)
Where a name gives a salt, the structure may show the parent alone. Read-outs that look alike come from different tables or passages of the source.

What was measured:
RIPK1 = RIPK1 (Homo sapiens (Human), UniProt Q13546); experiment: RIPK1 ADP-Glo biochemical kinase assay
Experimental: The final reaction volume was 5.0ul.
Adding 5 μl of ADP-Glo™ terminated the reaction.

L929 cells = experiment: L929 cell necroptosis assay (TNFa + zVAD, CellTiter-Glo); assay type: cell-based, murine
In short: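 Murine L929 cells, plated 18 h beforehand at 10K cells/well in RPMI 1640 with 10% FBS, were switched to medium containing 40 uM zVAD-fmk and given compound from 4-fold serial dilutions. Viability after 18 h of TNFa stimulation at 37° C was read by CellTiter-Glo luminescence.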

U937 cells = experiment: U937 cell necroptosis assay (TNFa + zVAD, CellTiter-Glo); assay type: cell-based, human
In short: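 Human U937 and murine L929 cells in RPMI 1640/10% FBS were pre-incubated 1 h at 37 °C with serially diluted compound plus zVAD-fmk (U937 plated with 60 uM, L929 medium with 40 uM), then stimulated with 2 ng/mL TNFa (final). Viability read by CellTiter-Glo luminescence after 18 h.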

[1] = read-out: RIPK1 ADP-Glo Kinase (IC50)
[2] = Mus musculus, L929, L929 cells, TNFa + zVAD, read-out: L929-CTG-recovery, L929, TNFa + zVAD (IC50)
[3] = Homo sapiens, U-937, U937 cells, TNFa + zVAD, read-out: U937 Zvad TNF CTG Recovery, U937, TNFa + zVAD (IC50)
[4] = Mus musculus, L929, read-out: L929-CTG-recovery, L929, TNFa + zVAD (IC50), L929 cells, TNFa + zVAD
[5] = L929 cells, TNFa + zVAD, read-out: L929-CTG-recovery, L929, TNFa + zVAD (IC50)

Sequence of RIPK1 (Q13546 whole entry, species assumed): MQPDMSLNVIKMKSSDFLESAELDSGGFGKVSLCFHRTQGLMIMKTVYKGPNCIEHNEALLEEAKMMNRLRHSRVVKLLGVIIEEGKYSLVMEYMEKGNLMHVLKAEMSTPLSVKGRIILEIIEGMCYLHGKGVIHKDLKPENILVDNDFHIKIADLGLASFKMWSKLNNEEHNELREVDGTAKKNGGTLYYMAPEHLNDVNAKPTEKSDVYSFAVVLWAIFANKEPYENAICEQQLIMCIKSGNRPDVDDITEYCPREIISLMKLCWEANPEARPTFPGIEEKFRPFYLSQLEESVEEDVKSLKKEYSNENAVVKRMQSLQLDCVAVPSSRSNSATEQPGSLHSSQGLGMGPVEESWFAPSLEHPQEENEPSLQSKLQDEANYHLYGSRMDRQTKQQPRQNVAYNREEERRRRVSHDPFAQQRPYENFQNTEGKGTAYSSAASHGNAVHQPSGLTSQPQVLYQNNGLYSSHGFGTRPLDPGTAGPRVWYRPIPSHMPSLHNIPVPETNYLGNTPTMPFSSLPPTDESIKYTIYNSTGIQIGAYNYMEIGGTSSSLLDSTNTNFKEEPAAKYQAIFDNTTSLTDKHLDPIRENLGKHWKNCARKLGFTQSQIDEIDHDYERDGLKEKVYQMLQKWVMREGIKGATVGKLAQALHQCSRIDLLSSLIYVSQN

Row | SMILES | IC50 (RIPK1; [1]) [nM] | IC50 (L929 cells; [2]) [nM] | IC50 (U937 cells; [3]) [nM] | further results
1 | CN1C(=O)[C@@H](NC(=O)c2n[nH]c(Cc3ccccc3)n2)COc2ccc(CCC(=O)Nc3ccc4cccnc4c3)cc21 [Compound I-12, (S)-5-benzyl-N-(5-methyl-4-oxo-7-(3-oxo-3-(quinolin-7-ylamino)propyl)-2,3,4,5-tetrahydrobenzo[b][1,4]oxazepin-3-yl)-1H-1,2,4-triazole-3-carboxamide] | 52 | – | 5.3 | IC50 (L929 cells; [4]): 42000 nM
2 | CN1C(=O)[C@@H](NC(=O)c2n[nH]c(Cc3ccccc3)n2)COc2ccc(CCCCOCc3ccccn3)cc21 [Compound I-16, (S)-5-benzyl-N-(5-methyl-4-oxo-7-(4-(pyridin-2-ylmethoxy)butyl)-2,3,4,5-tetrahydrobenzo[b][1,4]oxazepin-3-yl)-1H-1,2,4-triazole-3-carboxamide] | 1630 | 5670 | 51.7 | –
3 | CN1C(=O)[C@@H](NC(=O)n2cc(Cc3ccc(F)cc3)cn2)COc2ccc(C#CC3(O)CC4(CCC4)C3)cc21 [Compound I-224, (S)-4-(4-Fluorobenzyl)-N-(7-((2-hydroxyspiro[3.3]heptan-2-yl)ethynyl)-5-methyl-4-oxo-2,3,4,5-tetrahydrobenzo[b][1,4]oxazepin-3-yl)-1H-pyrazole-1-carboxamide] | 312 | 220 | 1.5 | –
4 | CN1C(=O)[C@@H](NC(=O)c2cc(OC3CCC3)ccn2)COc2ccc(C#CC(C)(C)O)cc21 [Compound I-152, (S)-4-cyclobutoxy-N-(7-(3-hydroxy-3-methylbut-1-yn-1-yl)-5-methyl-4-oxo-2,3,4,5-tetrahydrobenzo[b][1,4]oxazepin-3-yl)picolinamide] | 10.3 | 2510 | 39.1 | –
5 | COC(C)(C)C#Cc1ccc2c(c1)N(C)C(=O)[C@@H](NC(=O)c1cc(Oc3ccccc3)ccn1)CO2 [II-32, (S)—N-(7-(3-methoxy-3-methylbut-1-yn-1-yl)-5-methyl-4-oxo-2,3,4,5-tetrahydrobenzo[b][1,4]oxazepin-3-yl)-4-phenoxypicolinamide] | 50.5 | – | – | IC50 (L929 cells; [4]): 57.4 nM; IC50 (U937 cells; Homo sapiens, U-937, read-out: U937 Zvad TNF CTG Recovery, U937, TNFa + zVAD (IC50), U937 cells, TNFa + zVAD): 2.1 nM
6 | CN1C(=O)[C@@H](NC(=O)c2n[nH]c(Cc3ccccc3)n2)COc2ccc(C#CCCOc3ccc4cccnc4c3)cc21 [Compound I-41, (S)-5-benzyl-N-(5-methyl-4-oxo-7-(4-(quinolin-7-yloxy)but-1-yn-1-yl)-2,3,4,5-tetrahydrobenzo[b][1,4]oxazepin-3-yl)-1H-1,2,4-triazole-3-carboxamide] | 80 | 1.6 | 5.2 | –
7 | CN1C(=O)[C@@H](NC(=O)c2n[nH]c(Cc3ccccc3)n2)COc2ccc(C#CC(C)(C)O)cc21 [Compound I-30, (S)-5-benzyl-N-(7-(3-hydroxy-3-methylbut-1-yn-1-yl)-5-methyl-4-oxo-2,3,4,5-tetrahydrobenzo[b][1,4]oxazepin-3-yl)-1H-1,2,4-triazole-3-carboxamide] | – | 72.3 | 3.6 | IC50 (RIPK1): 40.2 nM
8 | C=C(C)C#Cc1ccc2c(c1)N(C)C(=O)[C@@H](NC(=O)c1cc(Oc3ccccc3)ccn1)CO2 [Compound I-99, (S)—N-(5-methyl-7-(3-methylbut-3-en-1-yn-1-yl)-4-oxo-2,3,4,5-tetrahydrobenzo[b][1,4]oxazepin-3-yl)-4-phenoxypicolinamide] | – | 116 | 1.3 | IC50 (RIPK1): 126 nM
9 | CN1C(=O)[C@@H](NC(=O)c2cc(Oc3ccccc3)ccn2)COc2ccc(N3CCC4(CCOCC4)C3)cc21 [II-31, (S)—N-(5-methyl-4-oxo-7-(8-oxa-2-azaspiro[4.5]decan-2-yl)-2,3,4,5-tetrahydrobenzo[b][1,4]oxazepin-3-yl)-4-phenoxypicolinamide] | 36.3 | – | 8 | IC50 (L929 cells; Mus musculus, L929 cells, TNFa + zVAD, read-out: L929-CTG-recovery, L929, TNFa + zVAD (IC50)): 654 nM

More lines, main results first:

Row | IC50 (RIPK1; [1]) [nM] | SMILES | IC50 (L929 cells; [2]) [nM] | IC50 (U937 cells; [3]) [nM] | further results
10 | 43.7 | CN1C(=O)[C@@H](NC(=O)c2ncn(Cc3ccccc3)n2)COc2ccc(CN3CCn4c(nnc4C(F)(F)F)C3)cc21 [Compound I-46, (S)-1-benzyl-N-(5-methyl-4-oxo-7-((3-(trifluoromethyl)-5,6-dihydro-[1,2,4]triazolo[4,3-a]pyrazin-7(8H)-yl)methyl)-2,3,4,5-tetrahydrobenzo[b][1,4]oxazepin-3-yl)-1H-1,2,4-triazole-3-carboxamide] | 0.4 | 1.2 | –
11 | 22.7 | CN1C(=O)[C@@H](NC(=O)n2cc(Cc3ccc(F)cc3)cn2)COc2ccc(C#CC3(O)CC4(COC4)C3)cc21 [Compound I-225, (S)-4-(4-Fluorobenzyl)-N-(7-((6-hydroxy-2-oxaspiro[3.3]heptan-6-yl)ethynyl)-5-methyl-4-oxo-2,3,4,5-tetrahydrobenzo[b][1,4]oxazepin-3-yl)-1H-pyrazole-1-carboxamide] | 32.5 | 0.5 | –
12 | 27.1 | CN1C(=O)[C@@H](NC(=O)c2n[nH]c(Cc3ccccc3)n2)COc2ccc(C#CCN3CCCC3)cc21 [Compound I-95, (S)-5-benzyl-N-(5-methyl-4-oxo-7-(3-(pyrrolidin-1-yl)prop-1-yn-1-yl)-2,3,4,5-tetrahydrobenzo[b][1,4]oxazepin-3-yl)-1H-1,2,4-triazole-3-carboxamide] | 0.5 | 1.4 | –
13 | 60.4 | CN1C(=O)[C@@H](NC(=O)c2n[nH]c(Cc3ccccc3)n2)COc2ccc(C#CC(C)(C)C)cc21 [Compound I-49, (S)-5-benzyl-N-(7-(3,3-dimethylbut-1-yn-1-yl)-5-methyl-4-oxo-2,3,4,5-tetrahydrobenzo[b][1,4]oxazepin-3-yl)-1H-1,2,4-triazole-3-carboxamide] | 1.2 | 5 | –
14 | 19.7 | COC1(C#Cc2ccc3c(c2)N(C)C(=O)[C@@H](NC(=O)c2cc(Oc4ccccc4)ccn2)CO3)COC1 [Compound I-128, (S)—N-(7-((3-methoxyoxetan-3-yl)ethynyl)-5-methyl-4-oxo-2,3,4,5-tetrahydrobenzo[b][1,4]oxazepin-3-yl)-4-phenoxypicolinamide] | 42.2 | 0.6 | –
15 | 71.7 | CC(C)[C@H](N)C(=O)OC1(C#Cc2ccc3c(c2)N(C)C(=O)[C@@H](NC(=O)c2cc(Oc4ccccc4)ccn2)CO3)COC1 [Compound I-164, 3-4(S)-5-methyl-4-oxo-3-(4-phenoxypicolinamido)-2,3,4,5-tetrahydrobenzo[b][1,4]oxazepin-7-yl)ethynyl)oxetan-3-yl L-valinate benzenesulfonic acid salt] | – | – | IC50 (L929 cells; [5]): 31.9 nM; IC50 (U937 cells; U937 cells, TNFa + zVAD, read-out: U937 Zvad TNF CTG Recovery, U937, TNFa + zVAD (IC50)): 0.7 nM
16 | 49 | CN1C(=O)[C@@H](NC(=O)c2cc(Oc3ccccc3F)ccn2)COc2ccc(C#CC(C)(C)O)cc21 [Compound I-103, (S)-4-(2-fluorophenoxy)-N-(7-(3-hydroxy-3-methylbut-1-yn-1-yl)-5-methyl-4-oxo-2,3,4,5-tetrahydrobenzo[b][1,4]oxazepin-3-yl)picolinamide] | 67.4 | 1.5 | –
17 | 79.4 | CN1C(=O)[C@@H](NC(=O)c2n[nH]c(Cc3ccccc3)n2)COc2cc(CN3CCn4nc(C(F)(F)F)nc4C3)ccc21 [Compound I-66, (S)-5-benzyl-N-(5-methyl-4-oxo-8-((2-(trifluoromethyl)-5,6-dihydro-[1,2,4]triazolo[1,5-a]pyrazin-7(8H)-yl)methyl)-2,3,4,5-tetrahydrobenzo[b][1,4]oxazepin-3-yl)-1H-1,2,4-triazole-3-carboxamide] | 94.9 | 189 | –
18 | 11 | CN1C(=O)[C@@H](NC(=O)c2ncn(Cc3ccccc3)n2)COc2ccc(C#CC3(O)COC3)cc21 [Compound I-58, (S)-1-benzyl-N-(7-((3-hydroxyoxetan-3-yl)ethynyl)-5-methyl-4-oxo-2,3,4,5-tetrahydrobenzo[b][1,4]oxazepin-3-yl)-1H-1,2,4-triazole-3-carboxamide] | 0.2 | 0.8 | –
19 | 32.7 | CN1C(=O)[C@@H](NC(=O)c2ccn(Cc3ccccc3)n2)COc2ccc(C#CC(C)(C)O)cc21 [Compound I-77, (S)-1-benzyl-N-(7-(3-hydroxy-3-methylbut-1-yn-1-yl)-5-methyl-4-oxo-2,3,4,5-tetrahydrobenzo[b][1,4]oxazepin-3-yl)-1H-pyrazole-3-carboxamide] | 0.3 | 2.8 | –
20 | 17.3 | CN1C(=O)[C@@H](NC(=O)c2cc(Oc3ccccc3)ccn2)COc2ccc(C#CC3(OC(=O)CCC(=O)O)COC3)cc21 [Compound I-147, (S)-4-((3-((5-methyl-4-oxo-3-(4-phenoxypicolinamido)-2,3,4,5-tetrahydrobenzo[b][1,4]oxazepin-7-yl)ethynyl)oxetan-3-yl)oxy)-4-oxobutanoic acid] | – | 1.2 | IC50 (L929 cells; [5]): 154 nM
